Laboratory results taken from patent publication US20240238423A9, “TETRAHYDROISOQUINOLINE HETEROBIFUNCTIONAL BCL-XL DEGRADERS” (Treeline Biosciences, Inc., priority 2022, published 2024).
Read-outs that look alike come from different tables or passages of the source.

Target: T1, Human BCL-XL protein (N-terminal HiBiT tagged BCL-XL in HT1080 cells) (Homo sapiens, UniProt Q07817)
T1 construct: expressed in transfected cells; host or cells: HT-1080 (ATCC CCL-121), stably transduced with lentivirus pLV-UBC-N-HiBiT-BCL-XL-PGK-puro and selected with puromycin
Experiment: HiBiT based degradation assay
Assay type: cell-based
Settings: HT1080 cells expressing HiBiT-BCL-XL; for DC50: BCL-XL degradation
Outline: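 HT1080 cells stably transduced by lentivirus with N-terminally HiBiT-tagged human BCL-XL and kept under 1 μg/mL puromycin selection were seeded at three thousand cells per well in 40 μL RPMI 1640 into 384-well plates pre-spotted with compounds across a concentration range. Luminescence was read on a PHERAstar FSX, normalized to DMSO, and fitted with a four-parameter logistic model.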

[1] = BCL-XL degradation normalized with DMSO control, 24 h

T1 sequence (Q07817 whole entry): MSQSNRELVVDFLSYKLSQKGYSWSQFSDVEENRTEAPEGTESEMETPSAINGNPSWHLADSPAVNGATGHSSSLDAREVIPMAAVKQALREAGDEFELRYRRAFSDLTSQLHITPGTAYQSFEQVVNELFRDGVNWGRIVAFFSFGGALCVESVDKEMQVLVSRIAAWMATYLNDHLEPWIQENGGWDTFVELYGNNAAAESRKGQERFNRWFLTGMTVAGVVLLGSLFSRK

Compound	Ymin (24 h) [1]	DC50 (24 h, read-out: EC50 (24 h)) [nM]	Ymin (6 h) (BCL-XL degradation normalized with DMSO control, 6 h)	DC50 (6 h, read-out: EC50 (6 h)) [nM]
Cc1c(OCCC[C@@H]2CCN(CC(=O)Nc3cccc4c(C5CCC(=O)NC5=O)nn(C)c34)C2)cccc1-c1ccc(N2CCc3cccc(C(=O)Nc4nc5ccccc5s4)c3C2)nc1C(=O)O (stereo partly drawn) [Compound 240a, 6-[8-(1,3-benzothiazol-2-ylcarbamoyl)-3,4-dihydro-1H-isoquinolin-2-yl]-3-[3-[3-[(3R)-1-[2-[[3-(2,6-dioxo-3-piperidyl)-1-methyl-indazol-7-yl]amino]-2-oxo-ethyl]pyrrolidin-3-yl]propoxy]-2-methyl-phenyl]pyridine-2-carboxylic acid]	B (50% ≤ Ymin < 70%)	< 100	–	–
Cc1c(OCCCC2CCN(CC(=O)N3CCN(c4ccc5c(C6CCC(=O)NC6=O)nn(C)c5c4)CC3)CC2)cccc1-c1ccc(N2CCc3cccc(C(=O)Nc4nc5ccccc5s4)c3C2)nc1C(=O)O (stereo not shown) [Compound 142, 6-(8-(benzo[d]thiazol-2-ylcarbamoyl)-3,4-dihydroisoquinolin-2(1H)-yl)-3-(3-(3-(1-(2-(4-(3-(2,6-dioxopiperidin-3-yl)-1-methyl-1H-indazol-6-yl)piperazin-1-yl)-2-oxoethyl)piperidin-4-yl)propoxy)-2-methylphenyl)picolinic acid]	A (Ymin < 50%)	< 100	A (Ymin < 50%)	< 100
Cc1c(OCC2CC3(CCN(CCN4CCN(c5cccc6c(C7CCC(=O)NC7=O)nn(C)c56)CC4)CC3)C2)cccc1-c1ccc(N2CCc3cccc(C(=O)Nc4nc5ccccc5s4)c3C2)nc1C(=O)O (stereo not shown) [Compound 188, 6-[8-(1,3-benzothiazol-2-ylcarbamoyl)-3,4-dihydro-1H-isoquinolin-2-yl]-3-[3-[[7-[2-[4-[3-(2,6-dioxo-3-piperidyl)-1-methyl-indazol-7-yl]piperazin-1-yl]ethyl]-7-azaspiro[3.5]nonan-2-yl]methoxy]-2-methyl-phenyl]pyridine-2-carboxylic acid]	A (Ymin < 50%)	< 100	–	–
Cc1c(OCC(F)(F)CC2CCN(CC(=O)Nc3ccc4c(C5CCC(=O)NC5=O)nn(C)c4c3)CC2)cccc1-c1ccc(N2CCc3cccc(C(=O)Nc4nc5ccccc5s4)c3C2)nc1C(=O)O (stereo not shown) [Compound 181, 6-[8-(1,3-benzothiazol-2-ylcarbamoyl)-3,4-dihydro-1H-isoquinolin-2-yl]-3-[3-[3-[1-[2-[[3-(2,6-dioxo-3-piperidyl)-1-methyl-indazol-6-yl]amino]-2-oxo-ethyl]-4-piperidyl]-2,2-difluoro-propoxy]-2-methyl-phenyl]pyridine-2-carboxylic acid]	A (Ymin < 50%)	< 100	–	–
Cc1c(OCC[C@@H]2CCN(CC(=O)Nc3cccc4c(C5CCC(=O)NC5=O)nn(C)c34)C2)cccc1-c1ccc(N2CCc3cccc(C(=O)Nc4nc5ccccc5s4)c3C2)nc1C(=O)O (stereo partly drawn) [Compound 231a, 6-[8-(1,3-benzothiazol-2-ylcarbamoyl)-3,4-dihydro-1H-isoquinolin-2-yl]-3-[3-[2-[(3S)-1-[2-[[3-(2,6-dioxo-3-piperidyl)-1-methyl-indazol-7-yl]amino]-2-oxo-ethyl]pyrrolidin-3-yl]ethoxy]-2-methyl-phenyl]pyridine-2-carboxylic acid]	B (50% ≤ Ymin < 70%)	< 100	–	–

More lines, now with the values ahead:

Ymin (24 h) [1]	DC50 (24 h, read-out: EC50 (24 h)) [nM]	Ymin (6 h) (BCL-XL degradation normalized with DMSO control, 6 h)	DC50 (6 h, read-out: EC50 (6 h)) [nM]	Compound
A (Ymin < 50%)	< 100	–	–	Cc1c(O[C@H]2CC[C@H](CCC[C@H](C)N3CCN(c4ccc5c(C6CCC(=O)NC6=O)nn(C)c5c4)CC3)CC2)cccc1-c1ccc(N2CCc3cccc(C(=O)Nc4nc5ccccc5s4)c3C2)nc1C(=O)O (single isomer, unassigned) [Compound 333a]
A (Ymin < 50%)	< 100	–	–	Cc1cc(O[C@H]2CC[C@H](CCC(=O)N3CCN(c4cccc5c(C6CCC(=O)NC6=O)nn(C)c45)CC3)CC2)ccc1-c1ccc(N2CCc3cccc(C(=O)Nc4nc5ccccc5s4)c3C2)nc1C(=O)O (stereo partly shown) [Compound 252a, 6-(8-(benzo[d]thiazol-2-ylcarbamoyl)-3,4-dihydroisoquinolin-2(1H)-yl)-3-(4-(((1r,4r)-4-(3-(4-(3-(2,6-dioxopiperidin-3-yl)-1-methyl-1H-indazol-7-yl)piperazin-1-yl)-3-oxopropyl)cyclohexyl)oxy)-2-methylphenyl)picolinic acid]
A (Ymin < 50%)	< 100	–	–	Cc1c(OCC[C@H]2CCC3(CCN(CC(=O)Nc4ccc5c(C6CCC(=O)NC6=O)nn(C)c5c4)CC3)C2)cccc1-c1ccc(N2CCc3cccc(C(=O)Nc4nc5ccccc5s4)c3C2)nc1C(=O)O (stereo in doubt) [Compound 272a, 6-(8-(benzo[d]thiazol-2-ylcarbamoyl)-3,4-dihydroisoquinolin-2(1H)-yl)-3-(3-(2-((2S)-8-(2-((3-(2,6-dioxopiperidin-3-yl)-1-methyl-1H-indazol-6-yl)amino)-2-oxoethyl)-8-azaspiro[4.5]decan-2-yl)ethoxy)-2-methylphenyl)picolinic acid]
A (Ymin < 50%)	< 100	–	–	Cc1c(O[C@H]2CC[C@H](CCC[C@@H](C)N3CCN(c4cccc5c(C6CCC(=O)NC6=O)nn(C)c45)CC3)CC2)cccc1-c1ccc(N2CCc3cccc(C(=O)Nc4nc5ccccc5s4)c3C2)nc1C(=O)O (single isomer, unassigned) [Compound 349b]
A (Ymin < 50%)	< 100	–	–	Cc1c(O[C@H]2CC[C@H](CCCCN3CC[C@H](c4cccc5c(C6CCC(=O)NC6=O)nn(C)c45)C3)CC2)cccc1-c1ccc(N2CCc3cccc(C(=O)Nc4nc5ccccc5s4)c3C2)nc1C(=O)O (single isomer, unassigned) [Compound 321a]
A (Ymin < 50%)	< 100	–	–	Cc1c(O[C@H]2CC[C@H](CCCCN3CCN(c4ccc5c(C6CCC(=O)NC6=O)nn(C)c5c4)C(C)(C)C3)CC2)cccc1-c1ccc(N2CCc3cccc(C(=O)Nc4nc5ccccc5s4)c3C2)nc1C(=O)O (stereo partly shown) [Compound 322a, 6-(8-(benzo[d]thiazol-2-ylcarbamoyl)-3,4-dihydroisoquinolin-2(1H)-yl)-3-(3-(((1s,4r)-4-(4-(4-(3-(2,6-dioxopiperidin-3-yl)-1-methyl-1H-indazol-6-yl)-3,3-dimethylpiperazin-1-yl)butyl)cyclohexyl)oxy)-2-methylphenyl)picolinic acid]
A (Ymin < 50%)	< 100	–	–	Cc1c(O[C@H]2CC[C@H](CCCCN3CC[C@@H](c4cccc5c(C6CCC(=O)NC6=O)nn(C)c45)C3)CC2)cccc1-c1ccc(N2CCc3cccc(C(=O)Nc4nc5ccccc5s4)c3C2)nc1C(=O)O (single isomer, unassigned) [Compound 321b]
A (Ymin < 50%)	< 100	–	–	Cn1nc(C2CCC(=O)NC2=O)c2ccc(N3CCN(CCCC[C@H]4CC[C@H](Oc5cccc(-c6ccc(N7CCc8cccc(C(=O)Nc9nc%10ccccc%10s9)c8C7)nc6C(=O)O)c5C(F)(F)F)CC4)CC3)cc21 (stereo partly shown) [Compound 319a, 6-(8-(benzo[d]thiazol-2-ylcarbamoyl)-3,4-dihydroisoquinolin-2(1H)-yl)-3-(3-(((1s,4r)-4-(4-(4-(3-(2,6-dioxopiperidin-3-yl)-1-methyl-1H-indazol-6-yl)piperazin-1-yl)butyl)cyclohexyl)oxy)-2-(trifluoromethyl)phenyl)picolinic acid]
